Source: US6285807A, “Fiber optic sensor for long-term analyte measurements in fluids” (Trustees of Tufts College, priority 1998, dated 2001)
Several values for one entry are separate records, joined by “and”; a condition that tells them apart may be missing. Equal entries are not always repeated. Where two headings read alike, the source gives them in different places.

Tests used:
[1] = 13 and 14; cited from earlier work
[2] = 13 and 14; at 21° C.; cited from earlier work
[3] = Sensor calibration for CO2, constants from theoretical fit (indicator in sensor); assay type: physicochemical; conditions: sensor (at 12° C.) (calculated)
Method: The calibration and operation of the sensor operation of the sensor is based on the Severinghaus electrode principle. When carbon dioxide crosses the membrane, the pH of the indicator solution is given by the Henderson-Hasselbach equation: [formula]
where aT =KH KM pCO2 KH /mol dm^3 atm^-1 is Henry's constant and KM is the membrane constant. Substituting Equation 7 into Equation 5 and rearranging gives: [formula]
The dissolved CO2 concentration was determined using Henry's constant [Cox, J. D., Head A. J. J Chem. Soc. Faraday Trans., 1962, 58, 1839]. […] Also, for this calculation the membrane volume was not corrected for the porosity, or water content, of the membrane. These parameters would have opposite effects. In the calibration, aT was assumed to equal the dissolved CO2 in the bulk solution, such that KM =1. The sensitivity of the sensor is approximately ±1 ppm.
The theoretical equation relating the fluorescence intensity. ratio to pCO2 was compared to test date and is shown by the solid curve in FIG. 6. The pHo value was calculated from Equation 5 using pKin while Io was derived from the above analysis. There was good agreement between experimental and theoretically-derived data.

[4] = Absorbance/emission spectra of carboxy-SNAFL-1 (excitation at 488 nm); assay type: physicochemical; conditions: for Emission (Ex. = 488 nm) (acid): acid form; for Emission (Ex. = 488 nm) (acid) / Emission (Ex. = 488 nm) (base) / Emission (Ex. = 488 nm) (isos): at 21° C.; for Emission (Ex. = 488 nm) (base): base form; for Emission (Ex. = 488 nm) (isos): isosbestic
Description: These peaks are centered at 540 nm and 620 nm and result from the protonated and deprotonated forms of the dyes respectively. This dual wavelength feature of the dye makes it particularly suitable for use in a ratiometric mode which accounts for system instabilities, such as photobleaching and lamp intensity fluctuations. This dye also has an isosbestic point at 625 run (Ex.=488 nm) which can be used for ratiometric measurements to assess the extent of dye photobleaching over time.
The maxima centered at 540 nm and 620 nm arise from the protonated and deprotonated forms of the dye respectively. [drawing 3]
The measurement system 100 comprises a Spectra Physics Model 162A-04 argon-ion laser 105 which provides excitation light radiation, typically at 488 nm. The excitation light is passed through a neutral density filter 110 and an angled dichroic mirror 115 to the proximal end 120 of an optical fiber 125 which conveys the excitation light to the distal end 130 of the fiber 125 and illuminates an optical interrogation zone 135 comprising a fluid sample volume with an indicator dye and analyte. In the presence of the analyte, the excitation light causes the indicator dye to emit emitted light energy in the optical interrogation zone 135, which emitted light is conveyed by the fiber 125 to the proximal end 120 and is deflected through 90° by the front surface 116 of the angled dichroic mirror 115. The emitted light is then focussed with lenses 145, filtered through a long wavelength, band-pass filter 150, and passed through a slit 155 into a monochromater 160. The resulting wavelength-dispersed signal is measured with a Pacific Instruments Model 126. photo-counting detection system. The intensity of the excitation light is measured in photon counts per second as either a function of time or of wavelength examined.

[5] = 13 and 14, at 21° C., cited from earlier work
[6] = Fluorescence emission pH titration of carboxy-SNAFL-1 (curve fits for Io, pKin and B); assay type: physicochemical; conditions: for I(543/623) (max) / I(543/623) (min) / pKin: at 21° C.
Description: Where the fluorescence intensity I=dh and I0 =dhT, the fluorescence intensity when the indicator is fully undissociated, Equation 4 becomes: [formula]
In this equation the additional term B is the background fluorescence of the system and is an experimentally-derived value. I can also be the ratio of the fluorescence intensities of the protonated and isosbestic forms, where. I=I545 /Iisos
The titration curves are shown for carboxy-SNAFL-1in distilled water and in a 0.67 M solution of NaCl. The solid lines are the theoretical curve fits using Equation 6. […] Experiments were carried out in 0.67 M NaCl because it is necessary to balance the osmotic pressure of the indicator solution in the sensor to that of the test solution. The osmotic pressure of the seawater is equivalent to 0.67 M NaCI.
The solid lines in FIG. 2 are theoretical fits of Equation 5. The results for Io, pKin, and B are summarized in Table 2 together with typical values reported elsewhere [Walt, D. R, Gabor, G., Goyet, C. Anal. Chim. Actca 1993, 274, 47; DeGrandpre, M. D., Anal. Chem. 1993, 65 (4), 331; Whitaker, J. E., Haugland, R. P., Prendergast, R P. Anal. Biochem. 1991, 194, 330].

[7] = distilled water (25° C.), 488 nm excitation

I(543/623) (max) [3]: 5.54 | pKin [3]: 7.98 | Emission (Ex. = 488 nm) (acid) ([3]; acid form): 545 nm | Emission (Ex. = 488 nm) (base) ([3]; base form): 610 nm | isosbestic point ([4]; Ex.=488 nm): 625 nm | emission maximum, deprotonated form [4, 7]: 620 nm | emission maximum, protonated form [4, 7]: 540 nm | emission peak, deprotonated form ([4]; excited at 488 nm): 620 nm | emission peak, protonated form ([4]; excited at 488 nm): 540 nm | Emission (Ex. = 488 nm) (acid) ([4]; in 0.67M NaCl): 542 nm | Emission (Ex. = 488 nm) (base) ([4]; in 0.67M NaCl): 620 nm | Emission (Ex. = 488 nm) (isos) ([4]; in 0.67M NaCl): 624 nm | Emission (Ex. = 488 nm) (acid) ([4]; in H2O): 545 nm | Emission (Ex. = 488 nm) (base) ([4]; in H2O): 618 nm | Emission (Ex. = 488 nm) (isos) ([4]; in H2O): 632 nm | effect of increasing ionic strength on maximum fluorescence intensity ([6]; distilled water vs 0.67 M NaCl): decreases with increasing ionic strength | effect of increasing ionic strength on pKin ([6]; distilled water vs 0.67 M NaCl): decreases pKin | I(543/623) (max) ([6]; in 0.67M NaCl): 5.27 | I(543/623) (min) ([6]; in 0.67M NaCl): 0.129 | pKin ([6]; in 0.67M NaCl): 7.67 | I(543/623) (max) ([6]; in H2O): 5.41 | I(543/623) (min) ([6]; in H2O): 0.145 | pKin ([6]; in H2O): 8.01
Substance: 5' (and 6')-carboxyseminaphthofluorescein [carboxy-SNAFL-1]
ΔH° [1]: 3.78 kcal/mol | ΔS° [1]: -22.6 cal mol^-1 K^-1 | ΔpH/ΔT [1]: 0.0192 ° C.^-1 | I(543/623) (max) [2]: 6.13 | I(543/623) (min) [2]: 0.09 | pKin [2]: 7.75 | Absorbance (acid) ([5]; acid form): 481 nm and 510 nm | Emission (Ex. = 488 nm) (acid) ([5]; acid form): 542 nm | Absorbance (base) ([5]; base form): 539 nm | Emission (Ex. = 488 nm) (base) ([5]; base form): 623 nm | Emission (Ex. = 488 nm) (isos) ([5]; isosbestic): 615 nm
